Data from patent US4640931A, “3-(indian-5-yloxy (or thio)) cyclopentanecarboxylic acid analogues” (Ono Pharmaceutical Co., Ltd., priority 1984, dated 1987).

Tests used:
[1] = system: organ slice of cat cerebral cortex (cerebral edema); test: inhibition test on cerebral edema using organ slice of cat cerebral cortex (NaHCO3-stimulated swelling); assay type: cell-based; conditions: for IC50: Felis catus, 50 min, cat cerebral cortex slices, NaHCO3 stimulated swelling, 50 minutes at 37° C., pH 7.4, read-out: Inhibitory activity cerebral edema (IC50); for Relative activity (Compound A = 1): relative to Compound A = 1
Protocol: The inhibition test on cerebral edema using organ slice of cat cerebral cortex The test was carried out by the method described in Journal of Medicinal Chemistry, vol. 25 (No. 5) 567 (1982).
That is, brain was isolated from a cat weighing 2-4 kg, slices of about 1 mm in thickness was prepared, the white matter substance was removed, and the gray matter substance (100-150 mg a test) was used for a sample. The sample was added to the following incubation medium and incuvated for 50 minutes at 37° C. After the incubation, the sample was immediately weighed again to determine the swelling weight of the sample. […]
incubation medium (osmotic pressure, 280-290 mOsm/1)
1. Hepes Buffer (pH 7.4) . . . 2.365 ml […]
adjusted to pH 7.4 by NaOH
2. test compounds [dissolved in the presence of tris(hydroxymethyl)aminomethane] or water . . . 0.01 ml 3. 0.2M NaHCO3 (dissolved by Hepes Buffer, giving the final concentration of 10 mM in medium) or Hepes Buffer . . . 0.125 ml The test was carried out by using NaHCO3 as a stimulating agent of swelling.
(A) A percentage of swelling when a slice sample was added to incubation medium comprising Hepes Buffer (1), water (2) and NaHCO3 (3) (defined as maximum of swelling).
(B) A percentage of swelling when a slice sample was added to incubation medium comprising Hepes Buffer ((1)+(3)) and water (2) (defined as maximum inhibition of swelling).
(C) A percentage of swelling when a slice sample was added to incubation medium comprising Hepes Buffer (1), the test compounds in various concentrations (2) and NaHCO3 (3).
Above-mentioned (A), (B) and (C) were determined. Inhibition percentage of the test compounds was caliculated by the following equation: [formula] IC50 value was determined by dose-response curve as a concentration in which inhibition percentage was 50.

acute toxicity test = conditions: in vivo, iv; administered intravenously
Description: On the other hand, it was confirmed that the acute toxicity of the compounds of the present invention was very weak. […] Therefore, compounds of the present invention may be considered to be sufficiently safe and suitable for medical use.

[2] = system: organ slice of cat cerebral cortex (cerebral edema); conditions: in words, known DCPIB; cited from earlier work

## CC1(C2CCCC2)Cc2cc(O[C@H]3CC[C@H](C(=O)O)C3)c(Cl)c(Cl)c2C1=O (mixture of isomers) [Ex. 2 (a), (1S, 3S)-3-[((2RS)-2-cyclopentyl-2-methyl-6,7-dichloro-1-oxoindan-5-yl)oxy]cyclopentanecarboxylic acid]
[1]
  IC50: 1.5 nM
  Relative activity (Compound A = 1): 21.3
Acute toxicity test
  LD50: 200 to 400 mg/kg

## CC1(C2CCCC2)Cc2cc(S[C@H]3CC[C@H](C(=O)O)C3)c(Cl)c(Cl)c2C1=O (mixture of isomers) [Ex. 2 (b), (1S, 3S)-3-[((2RS)-2-cyclopentyl-2-methyl-6,7-dichloro-1-oxoindan-5-yl)thio]cyclopentanecarboxylic acid]
[1]
  IC50: 5.9 nM
  Relative activity (Compound A = 1): 5.42

## CC1(C2CCCC2)Cc2cc(O[C@H]3CC[C@H](C(=O)O)C3)c(Cl)c(Cl)c2C1=O (relative stereo) [Ex. 2, 1,3-trans-3-[((2RS)-2-cyclopentyl-2-methyl-6,7-dichloro-1-oxoindan-5-yl)oxy]cyclopentanecarboxylic acid]
[1]
  IC50: 2.5 nM
  Relative activity (Compound A = 1): 12.8

## C[C@]1(C2CCCC2)Cc2cc(OCCCC(=O)O)c(Cl)c(Cl)c2C1=O [Compound A, (+)-4-[((2R)-2-cyclopentyl-2-methyl-6,7-dichloro-1-oxoindan-5-yl)oxy]butyric acid, reference compound]
[1]
  IC50: 32 nM
[2]
  inhibitory effect on cerebral edema: strong, but the effect is not enough to use in practice

## C[C@@]1(C2CCCC2)Cc2cc(O[C@H]3CC[C@H](C(=O)O)C3)c(Cl)c(Cl)c2C1=O [Ex. 2 (c), (1S, 3S)-3-[((2S)-2-cyclopentyl-2-methyl-6,7-dichloro-1-oxoindan-5-yl)oxy]cyclopentanecarboxylic acid]
[1]
  IC50: 1.6 nM
  Relative activity (Compound A = 1): 20.0
